The values below are quoted from earlier work in PMC4522190 (ChemistryOpen, 2015).

For this data set, the system named is proteases. To be noted: statement without data.

Consider cyclo-RRRWFW (head to tail) [c-WFW], for which the “metabolic stability against proteases (in words)” value is recorded as “good metabolic stability against proteases”.
